These results are taken from ChEMBL document CHEMBL4043280, “Preparation of 5'-deoxy-5'-amino-5'-C-methyl adenosine derivatives and their activity against DOT1L” (Bioorg Med Chem Lett, 2017).

pIC50: −log10 of the molar value.

As a reminder, the pIC50 is the negative decadic logarithm of the IC50, by convention in mol/L.

The target in the assay is Histone-lysine N-methyltransferase, H3 lysine-79 specific (Homo sapiens, UniProt Q8TEK3). Put plainly: Inhibition of recombinant human N-terminal GST-tagged DOT1L (2 to 416 residues) expressed in Escherichia coli assessed as reduction in histone H3 lysine-N-methyltransferase activity using nucleosomes after 3 hrs in presence of SAM by AlphLisa assay.
Histone-lysine N-methyltransferase, H3 lysine-79 specific, sequence (Q8TEK3 whole entry, the tested form may be a part): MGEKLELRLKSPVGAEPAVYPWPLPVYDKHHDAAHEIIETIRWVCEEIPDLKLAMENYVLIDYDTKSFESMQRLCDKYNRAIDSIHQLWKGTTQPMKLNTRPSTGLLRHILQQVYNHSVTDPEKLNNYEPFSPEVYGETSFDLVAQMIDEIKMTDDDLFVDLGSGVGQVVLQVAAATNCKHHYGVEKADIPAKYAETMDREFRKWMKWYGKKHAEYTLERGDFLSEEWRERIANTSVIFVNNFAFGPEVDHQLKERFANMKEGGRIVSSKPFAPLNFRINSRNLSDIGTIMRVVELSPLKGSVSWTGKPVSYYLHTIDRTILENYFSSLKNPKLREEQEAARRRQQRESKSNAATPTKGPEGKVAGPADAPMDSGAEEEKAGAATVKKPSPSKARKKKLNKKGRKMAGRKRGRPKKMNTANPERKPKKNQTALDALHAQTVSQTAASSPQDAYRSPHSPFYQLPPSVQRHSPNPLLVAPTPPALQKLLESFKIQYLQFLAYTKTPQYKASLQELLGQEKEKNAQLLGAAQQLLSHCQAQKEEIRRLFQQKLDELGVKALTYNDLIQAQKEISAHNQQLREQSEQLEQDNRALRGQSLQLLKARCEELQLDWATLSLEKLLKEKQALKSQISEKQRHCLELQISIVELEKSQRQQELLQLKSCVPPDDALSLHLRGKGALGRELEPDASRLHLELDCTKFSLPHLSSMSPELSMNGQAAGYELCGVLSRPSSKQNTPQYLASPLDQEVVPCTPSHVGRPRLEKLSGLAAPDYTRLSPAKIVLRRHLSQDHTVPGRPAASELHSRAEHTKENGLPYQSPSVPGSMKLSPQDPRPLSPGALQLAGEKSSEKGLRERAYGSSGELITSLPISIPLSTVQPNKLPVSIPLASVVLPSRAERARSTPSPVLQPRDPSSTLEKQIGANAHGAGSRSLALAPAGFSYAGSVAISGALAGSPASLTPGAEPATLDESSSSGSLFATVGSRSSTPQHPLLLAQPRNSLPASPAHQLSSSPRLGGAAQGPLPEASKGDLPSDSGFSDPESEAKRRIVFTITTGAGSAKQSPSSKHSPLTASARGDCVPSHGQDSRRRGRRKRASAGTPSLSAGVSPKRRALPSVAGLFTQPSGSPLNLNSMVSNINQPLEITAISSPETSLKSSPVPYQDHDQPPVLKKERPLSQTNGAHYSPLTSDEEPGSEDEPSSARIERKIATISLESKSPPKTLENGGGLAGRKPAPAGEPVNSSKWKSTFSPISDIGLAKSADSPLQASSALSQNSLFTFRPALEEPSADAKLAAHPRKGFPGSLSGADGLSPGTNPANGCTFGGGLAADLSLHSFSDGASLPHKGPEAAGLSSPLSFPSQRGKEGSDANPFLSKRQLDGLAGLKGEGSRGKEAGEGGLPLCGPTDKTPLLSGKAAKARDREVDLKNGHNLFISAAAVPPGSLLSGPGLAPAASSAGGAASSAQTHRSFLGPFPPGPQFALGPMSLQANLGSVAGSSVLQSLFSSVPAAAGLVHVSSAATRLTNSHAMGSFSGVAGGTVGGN
In the case of `CC(C)N(CCCNC(=O)Nc1ccc(C(C)(C)C)cc1)[C@@H](C)[C@H]1O[C@@H](n2cnc3c(N)ncnc32)[C@H](O)[C@@H]1O`, the pIC50 was 8.20. Under `C[C@@H]([C@H]1O[C@@H](n2cnc3c(N)ncnc32)[C@H](O)[C@@H]1O)N(C1CCC1)C1CC(CCc2nc3cc(C(C)(C)C)ccc3[nH]2)C1` (some centres undefined) stands 5.84; under `C[C@H](NC1CC(CCc2nc3cc(C(C)(C)C)ccc3[nH]2)C1)[C@H]1O[C@@H](n2cnc3c(N)ncnc32)[C@H](O)[C@@H]1O` (some centres undefined), 6.16; under `C[C@@H]([C@H]1O[C@@H](n2cnc3c(N)ncnc32)[C@H](O)[C@@H]1O)N(C1CC(CCc2nc3cc(C(C)(C)C)ccc3[nH]2)C1)C1CC(CCc2nc3cc(C(C)(C)C)ccc3[nH]2)C1` (some centres undefined), 5.67.
